Experimental data as given in patent US7176199B2, “Aryl-substituted alicyclic compound and medical composition comprising the same” (Dainippon Pharmaceutical Co., Ltd., priority 2001, dated 2007).

Experiments:
[1] = biological target: αvβ3 integrin (Homo sapiens, UniProt P05106+P06756); assay: Assay for the inhibition of αvβ3 integrin binding (vitronectin as ligand); parameters: purchased Chemicon International, Inc., USA; settings: inhibition of specific binding of biotinylated human vitronectin to immobilized αvβ3 integrin
Sequence of αvβ3 integrin (P06756 31-889 limits assumed): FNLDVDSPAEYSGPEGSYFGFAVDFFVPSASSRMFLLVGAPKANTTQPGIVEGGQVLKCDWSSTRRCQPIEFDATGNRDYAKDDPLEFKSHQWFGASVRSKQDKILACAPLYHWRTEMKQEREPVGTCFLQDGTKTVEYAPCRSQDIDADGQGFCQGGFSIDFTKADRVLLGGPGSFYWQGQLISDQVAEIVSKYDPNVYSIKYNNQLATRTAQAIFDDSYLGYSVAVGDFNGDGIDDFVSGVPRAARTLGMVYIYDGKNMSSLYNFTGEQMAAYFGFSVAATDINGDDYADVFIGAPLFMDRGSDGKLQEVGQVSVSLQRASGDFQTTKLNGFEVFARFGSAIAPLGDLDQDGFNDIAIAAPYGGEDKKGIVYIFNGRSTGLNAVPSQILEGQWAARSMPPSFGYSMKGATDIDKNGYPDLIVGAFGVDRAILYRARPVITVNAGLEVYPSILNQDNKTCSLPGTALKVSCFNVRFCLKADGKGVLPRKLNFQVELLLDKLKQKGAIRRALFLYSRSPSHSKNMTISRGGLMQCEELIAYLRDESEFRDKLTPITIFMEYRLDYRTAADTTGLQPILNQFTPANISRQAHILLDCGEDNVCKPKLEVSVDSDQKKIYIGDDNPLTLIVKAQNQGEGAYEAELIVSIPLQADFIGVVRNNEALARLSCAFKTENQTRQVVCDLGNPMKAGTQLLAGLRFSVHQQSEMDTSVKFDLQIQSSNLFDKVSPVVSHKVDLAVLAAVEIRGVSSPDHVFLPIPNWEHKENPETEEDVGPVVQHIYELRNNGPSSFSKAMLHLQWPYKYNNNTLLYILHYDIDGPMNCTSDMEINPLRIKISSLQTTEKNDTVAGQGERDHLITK
Sequence of αvβ3 integrin (P06756 891-1048 partner limits assumed): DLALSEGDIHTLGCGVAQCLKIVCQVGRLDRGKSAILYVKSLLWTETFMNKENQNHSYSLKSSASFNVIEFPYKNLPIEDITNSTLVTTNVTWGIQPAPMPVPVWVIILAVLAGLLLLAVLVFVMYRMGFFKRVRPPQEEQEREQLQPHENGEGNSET
Sequence of αvβ3 integrin (P05106 27-788): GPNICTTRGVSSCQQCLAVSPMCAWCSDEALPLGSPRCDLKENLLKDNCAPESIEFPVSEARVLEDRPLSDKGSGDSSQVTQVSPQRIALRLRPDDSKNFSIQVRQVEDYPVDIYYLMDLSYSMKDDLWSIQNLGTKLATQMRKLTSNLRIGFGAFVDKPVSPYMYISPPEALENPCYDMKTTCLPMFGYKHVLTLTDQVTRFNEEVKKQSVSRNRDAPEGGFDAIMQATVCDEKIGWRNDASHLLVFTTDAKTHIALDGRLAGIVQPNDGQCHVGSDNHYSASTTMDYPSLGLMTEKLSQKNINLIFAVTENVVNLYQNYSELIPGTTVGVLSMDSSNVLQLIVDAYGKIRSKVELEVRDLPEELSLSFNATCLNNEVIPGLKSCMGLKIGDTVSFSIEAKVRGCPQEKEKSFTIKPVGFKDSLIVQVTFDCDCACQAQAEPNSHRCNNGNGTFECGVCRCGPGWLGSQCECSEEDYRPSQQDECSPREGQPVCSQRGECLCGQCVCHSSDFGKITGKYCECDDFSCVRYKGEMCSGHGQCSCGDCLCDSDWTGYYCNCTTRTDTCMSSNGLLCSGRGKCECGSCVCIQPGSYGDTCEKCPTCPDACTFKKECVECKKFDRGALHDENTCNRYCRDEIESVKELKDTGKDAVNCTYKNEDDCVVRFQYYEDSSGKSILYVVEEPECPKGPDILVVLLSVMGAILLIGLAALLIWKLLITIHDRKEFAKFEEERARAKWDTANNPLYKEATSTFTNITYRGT
Description: Experiment 1: Assay for the Inhibition of αvβ3 integrin binding
This experiment was carried out based on the method described in […].
Purified human αvβ3 integrin (Chemicon International, Inc., USA) was adjusted to a concentration of 1 μg/ml with TBS^++ [20 mM Tris-HCl (pH 7.4), 150 mM NaCl, 1 mM CaCl2, 1 mM MgCl2], and the diluted solution was added to plates (Labsystems, Finland) at 50 μl/well. The plate was left at 4° C. overnight for immobilization of the αvβ3 integrin. All subsequent steps were done at 25° C., and the procedure for each well was described hereafter.
The solution was discarded, and then 200 μl of TBS^++ containing 1% BSA (Wako Pure Chemical Industries, Ltd., Japan) was added to the well and left for one hour for blocking. The well was washed with a wash solution (TBS^++ containing 0.01% Tween 20) 4 times, and 50 μl of a reaction solution (TBS^++ containing 0.1% BSA and 0.01% Tween 20) was added to the well. Subsequently, 25 μl of a test compound solution adjusted to each concentration with the reaction solution was added, and then mixed with 25 μl of biotinylated (Amersham Pharmacia Biotech, UK) human vitronectin (Gibco BRL, USA) adjusted to 0.4 μg/ml with the reaction solution. The mixture was reacted for 2 hours. After washing 4 times with the wash solution, 100 μl of peroxidase-labeled streptoavidin (Amersham Pharmacia Biotech, UK) diluted 1:500 with the reaction solution was added to the well. Following 30 minutes reaction, the well was washed 4 times with the wash solution, and 100 μl of a TMB substrate solution (Bio-Rad Laboratories, USA) was added to the well. Color was developed for 20 minutes and the reaction was stopped by adding 100 μl of 0.5 M sulfuric acid.
(§1) The absorbance at 450 nm was measured with a plate reader (Molecular Devices, USA) to obtain a total binding. To obtain a nonspecific binding, EDTA adjusted to 20 mM with the reaction solution was added instead of the test compound solution. A specific binding was calculated by subtracting the nonspecific binding from the total binding.

[2] = biological target: T1, αIIbβ3 integrin (Homo sapiens, UniProt P05106+P08514); assay: Assay for the inhibition of αIIbβ3 integrin binding (fibrinogen as ligand, integrin captured from platelet lysate); settings: inhibition of specific binding of biotinylated fibrinogen to αIIbβ3 integrin from human platelet lysate
T1 construct: from tissue; host or cells: human platelets (Triton X-100 lysate)
T1 sequence (P08514 32-887 limits assumed): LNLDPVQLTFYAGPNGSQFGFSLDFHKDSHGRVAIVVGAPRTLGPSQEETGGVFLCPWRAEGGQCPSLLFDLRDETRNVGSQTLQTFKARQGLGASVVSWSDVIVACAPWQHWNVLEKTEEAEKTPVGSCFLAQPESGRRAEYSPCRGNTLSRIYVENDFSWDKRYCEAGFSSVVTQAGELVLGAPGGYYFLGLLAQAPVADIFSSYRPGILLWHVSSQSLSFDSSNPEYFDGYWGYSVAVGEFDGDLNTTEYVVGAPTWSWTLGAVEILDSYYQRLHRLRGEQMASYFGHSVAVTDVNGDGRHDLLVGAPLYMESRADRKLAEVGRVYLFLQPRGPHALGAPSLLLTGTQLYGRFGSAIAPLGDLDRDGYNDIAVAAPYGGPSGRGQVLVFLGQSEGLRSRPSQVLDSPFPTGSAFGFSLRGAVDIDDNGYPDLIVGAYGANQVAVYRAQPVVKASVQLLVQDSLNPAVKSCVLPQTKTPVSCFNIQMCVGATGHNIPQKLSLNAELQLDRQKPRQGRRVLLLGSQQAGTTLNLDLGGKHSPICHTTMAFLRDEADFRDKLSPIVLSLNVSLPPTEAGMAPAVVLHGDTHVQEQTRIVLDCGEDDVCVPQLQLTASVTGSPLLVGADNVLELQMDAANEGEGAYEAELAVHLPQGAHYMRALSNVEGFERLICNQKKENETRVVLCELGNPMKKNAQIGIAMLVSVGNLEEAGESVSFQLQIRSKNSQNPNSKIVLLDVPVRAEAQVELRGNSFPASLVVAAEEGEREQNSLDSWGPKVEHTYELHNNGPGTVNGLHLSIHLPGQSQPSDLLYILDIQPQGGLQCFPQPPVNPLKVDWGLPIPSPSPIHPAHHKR
T1 sequence (P08514 891-1039 partner limits assumed): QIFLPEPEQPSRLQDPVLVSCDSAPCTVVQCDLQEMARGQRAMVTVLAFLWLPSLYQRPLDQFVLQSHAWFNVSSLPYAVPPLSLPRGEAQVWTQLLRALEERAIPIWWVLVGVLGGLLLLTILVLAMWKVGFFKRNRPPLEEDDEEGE
T1 sequence (P05106 27-788): as the sequence (P05106 27-788) above
Description: Experiment 2: Assay for the Inhibition of αIIbβ3 Integrin Binding
This experiment was carried out based on the method described in Thromb. Haemostasis, 75, 339 (1996), Blood, 93, 2559 (1999), using fibrinogen as a ligand. According to the method described in the above literatures, assay for the inhibition of αIIbβ3 integrin binding can be achieved by capturing αIIbβ3 integrin from platelet lysate with the use of an activated antibody against αIIbβ3 integrin.
Human platelets were isolated in a conventional manner. At 25° C., the isolated platelets were adjusted to a concentration of 1.25×10^9/ml with TBS+[50 mM Tris-HCl (pH 7.4), 150 mM NaCl, 2 mM CaCl2], and then ⅛ volume of TBS^+ containing 2 mM leupepsin and 10 mM PMSF was added and stirred gently. Nest, 1/9 volume of TBS+ containing 10% Triton X-100 was added and stirred gently. After standing on ice for 30 minutes, a platelet lysate was prepared from the mixture by discarding the insoluble fraction with centrifugation (10,000 g, 15 minutes).
Anti-mouse IgG goat antibody (Jackson Immunoresearch Laboratories, Inc., USA) was adjusted to a concentration of 5 μg/ml with sodium carbonate buffer (pH 9.6) and added to plates at 50 μl/well. The plate was left at 4° C. overnight for immobilization of the antibody. All subsequent steps were done at 25° C., and the procedure for each well was described hereafter.
The well was washed once with TBS^+, and then 200 μl of TBS^+ containing 5% BSA was added to the well and left for one hour for blocking. The well was washed with a reaction solution (TBS^+ containing 0.1% BSA and 0.05% Triton X-100) 4 times, and then 50 μl of anti-human αIIbβ3 integrin activated monoclonal antibody (TAKARA SHUZO CO., LTD, Japan, PT25-2 strain) adjusted to 5 μg/ml with the reaction solution was added to the well. After one hour reaction, the well was washed 4 times with the reaction solution, and 50 μl of the platelet lysate diluted 1:2 with the reaction solution was added to the well. Following 2 hours reaction, the well was washed 4 times with the reaction solution, and 50 μl of the reaction solution was added to the well. Subsequently, 25 μl of a test compound solution adjusted to each concentration with the reaction solution was added, and then mixed with 25 μl of biotinylated fibrinogen (Calbiochem, Germany) adjusted to 2 μg/ml with the reaction solution. The mixture was reacted for one hour. After washing 4 times with the reaction solution, 100 μl of alkaline phosphatase-labeled streptoavidin (Gibco BRL, USA) diluted 1:500 with the reaction solution was added to the well. Following 30 minutes reaction, the well was washed 4 times with the wash solution. Next, 50 μl of the NaDPH solution (Invitrogen, former company name: Gibco BRL, USA) was added and reacted for 20 minutes, and then 50 μl of an amplification solution containing diaphorase and alcohol dehydrogenase (Invitrogen, former company name: Gibco BRL, USA) was added. Color was developed for 20 minutes and the reaction was stopped by adding 50 μl of 0.5 M sulfuric acid.
as §1, with “495” for “450”, “reader” for “reader (Molecular Devices, USA)”

Row | Compound | IC50 [1] [nM] | IC50 [2] [nM]
1 | O=C(N[C@@H](CNC(=O)C1CCC(c2cccc(NC3=NCCCN3)c2)CC1)C(=O)O)OCc1ccccc1 (single isomer, unassigned) [Ex. 151A] | 0.074 | 37
2 | O=C(N[C@@H](CNC(=O)C1CCC(c2cccc(NC3=NCCCN3)c2)CC1)C(=O)O)OCc1ccccc1 (single isomer, unassigned) [Ex. 151B] | 1.9 | 510
3 | O=C(N[C@@H](CNC(=O)C1CCN(c2cccc(NC3=NCCCN3)c2)CC1)C(=O)O)OCc1ccccc1 [Ex. 2, (2S)-2-benzyloxycarbonylamino-3-[[1-[3-(1,4,5,6-tetrahydropyrimidin-2-yl)aminophenyl]piperidin-4-yl]carbonylamino]propanoic acid] | 0.06 | 43
4 | O=C(N[C@@H](CNC(=O)C1CCN(c2cccc(NC3=NCCN3)c2)CC1)C(=O)O)OCc1ccccc1 [Ex. 9, (2S)-2-benzyloxycarbonylamino-3-[[1-[3-(2-imidazolin-2-yl)aminophenyl]piperidin-4-yl]carbonylamino]propanoic acid] | 0.059 | 54
5 | O=C(N[C@@H](CNC(=O)C1CCN(c2cccc(NC3=NCCCCN3)c2)CC1)C(=O)O)OCc1ccccc1 [Ex. 10, (2S)-2-benzyloxycarbonylamino-3-[[1-[3-(1H-4,5,6,7-tetrahydro-1,3-diazepin-2-yl)aminophenyl]piperidin-4-yl]carbonylamino]propanoic acid] | 0.075 | 74
6 | CC1(C)CN=C(Nc2cccc(N3CCC(C(=O)NC[C@H](NC(=O)OCc4ccccc4)C(=O)O)CC3)c2)NC1 [Ex. 11, (2S)-2-benzyloxycarbonylamino-3-[[1-[3-(5,5-dimethyl-1,4,5,6-tetrahydropyrimidin-2-yl)aminophenyl]piperidin-4-yl]carbonylamino]-propanoic acid] | 0.14 | 87
7 | O=C(N[C@@H](CNC(=O)C1CCN(c2cccc(NC3=NCC(F)(F)CN3)c2)CC1)C(=O)O)OCc1ccccc1 [Ex. 12, (2S)-2-benzyloxycarbonylamino-3-[[1-[3-(5,5-difluoro-1,4,5,6-tetrahydropyrimidin-2-yl)aminophenyl]piperidin-4-yl]carbonylamino]-propanoic acid] | 0.057 | 95
8 | O=C(N[C@@H](CNC(=O)C1CCN(c2cccc(NC3=NCC(F)CN3)c2)CC1)C(=O)O)OCc1ccccc1 (stereo partly drawn) [Ex. 13, (2S)-2-benzyloxycarbonylamino-3-[[1-[3-(5-fluoro-1,4,5,6-tetrahydropyrimidin-2-yl)aminophenyl]piperidin-4-yl]carbonylamino]-propanoic acid] | 0.042 | 59
9 | CC(C)COC(=O)N[C@@H](CNC(=O)C1CCN(c2cccc(NC3=NCC(C)(C)CN3)c2)CC1)C(=O)O [Ex. 18, (2S)-2-isobutoxycarbonylamino-3-[[1-[3-(5,5-dimethyl-1,4,5,6-tetrahydropyrimidin-2-yl)aminophenyl]piperidin-4-yl]carbonylamino]-propanoic acid] | 0.13 | 310
10 | CC(C)COC(=O)N[C@@H](CNC(=O)C1CCN(c2cccc(NC3=NCC(F)CN3)c2)CC1)C(=O)O (stereo partly drawn) [Ex. 19, (2S)-2-isobutoxycarbonylamino-3-[[1-[3-(5-fluoro-1,4,5,6-tetrahydropyrimidin-2-yl)aminophenyl]piperidin-4-yl]carbonylamino]-propanoic acid] | 0.032 | 100
11 | CC(C)COC(=O)N[C@@H](CNC(=O)C1CCN(c2cccc(NC3=NCC(O)CN3)c2)CC1)C(=O)O (stereo partly drawn) [Ex. 20, (2S)-2-Isobutoxycarbonylamino-3-[[1-[3-(5-hydroxy-1,4,5,6-tetrahydropyrimidin-2-yl)aminophenyl]piperidin-4-yl]carbonylamino]-propanoic acid] | 0.061 | 37
12 | O=C(NCc1ccccc1)Nc1cccc(N2CCC(C(=O)NC[C@H](NC(=O)OCc3ccccc3)C(=O)O)CC2)c1 [Ex. 30, (2S)-3-{[1-[3-(benzylaminocarbonyl)aminophenyl]-piperidin-4-yl}carbonylamino]-2-(benzyloxycarbonylamino)propanoic acid] | 5.1 | 4600
13 | CC(C)OC(=O)N[C@@H](CNC(=O)C1CCN(c2cccc(NC3=NCCCN3)c2)CC1)C(=O)O [Ex. 44, (2S)-2-isopropoxycarbonylamino-3-[[1-[3-(1,4,5,6-tetrahydropyrimidin-2-yl)aminophenyl]piperidin-4-yl]carbonylamino]-propanoic acid] | 0.11 | 800
14 | CC(C)COC(=O)N[C@@H](CCC(=O)N1CCN(c2cccc(NC3=NCC(C)(C)CN3)c2)CC1)C(=O)O [Ex. 126] | 0.38 | 
15 | CC(C)COC(=O)N[C@@H](CCC(=O)N1CCN(c2cccc(NC3=NCC(F)CN3)c2)CC1)C(=O)O (stereo partly drawn) [Ex. 127, (2S)-2-Isobutoxycarbonylamino-5-[4-[3-(5-fluoro-1,4,5,6-tetrahydropyrimidin-2-yl)aminophenyl]piperazin-1-yl]-5-oxopentanoic acid] | 0.055 | 
16 | CC(C)COC(=O)N[C@@H](CCC(=O)N1CCN(c2cccc(NC3=NCC(O)CN3)c2)CC1)C(=O)O (some centres unmarked) [Ex. 128] | 0.3 | 
17 | CCOC(=O)N[C@@H](CCC(=O)N1CCN(c2cccc(NC3=NCCCN3)c2)CC1)C(=O)O [Ex. 136] | 0.59 | 
18 | CC(C)COC(=O)N[C@@H](CCC(=O)N1CCN(c2cccc(NC3=NCCCN3)c2)CC1)C(=O)O [Ex. 138, (2S)-2-isobutoxycarbonylamino-5-[4-[3-(1,4,5,6-tetrahydropyrimidin-2-yl)aminophenyl]piperazin-1-yl]-5-oxopentanoic acid] | 0.32 | 
19 | O=C(Cc1ccccc1)N[C@@H](CCC(=O)N1CCN(c2cccc(NC3=NCCCN3)c2)CC1)C(=O)O [Ex. 139] | 6.8 | 
20 | CCNC(=O)N[C@@H](CCC(=O)N1CCN(c2cccc(NC3=NCCCN3)c2)CC1)C(=O)O [Ex. 142] | 3.6 | 
21 | O=C(NCc1ccccc1)N[C@@H](CCC(=O)N1CCN(c2cccc(NC3=NCCCN3)c2)CC1)C(=O)O [Ex. 143] | 1.4 | 
22 | O=C(N[C@@H](CCC(=O)N1CCN(c2cc(NC3=NCCCN3)ccc2F)CC1)C(=O)O)OCc1ccccc1 [Ex. 155, (2S)-2-benzyloxycarbonylamino-5-[4-[2-fluoro-5-(1,4,5,6-tetrahydropyrimidin-2-yl)aminophenyl]piperazin-1-yl]-5-oxopentanoic acid] | 0.077 | 
